Laboratory results taken from paper PMC5243837, “The Effect of Selective D- or N^α-Methyl Arginine Substitution on the Activity of the Proline-Rich Antimicrobial Peptide, Chex1-Arg20” (Frontiers in Chemistry, 2017).
Like-named read-outs stand apart in the source and are kept apart here. Where a SMILES comes first, the peptide text is derived from it. [ ]: non-standard residue; d: D form. NMeR = CN[C@@H](CCCNC(=N)N)C(=O)O; Ac6c = NC1(C(=O)O)CCCCC1; Chex = not defined here

Legend:
K. pneumoniae ATCC 13883 [1] = type: cell-based, Klebsiella pneumoniae; conditions: for Antibacterial activity, MIC: ATCC 13883; for Antibacterial activity against K. pneumoniae (in words): K. pneumoniae ATCC 13883 in MHB, compared with analog 1, Chex1-Arg20
Experimental: An antibacterial assay was undertaken to determine the minimal inhibitory concentration (MIC) as described previously (Li et al., [2015b]). The Gram-negative nosocomial bacterium, K. pneumoniae ATCC13883, was selected for testing the antibacterial activities of the Chex1-Arg20 analogs using 2.5 × 10^5 cells/ml in Mueller Hinton broth (MHB) at 37°C immediately prior to the determination of MIC.
Each Chex1-Arg20 analog was assayed against the nosocomial Gram-negative bacterium K. pneumoniae ATCC 13883. The results are shown in Table 2 in comparison with analog 1, Chex1-Arg20. […] This highlighted the importance of arginine-7 and its native L-configuration for characteristic antimicrobial activity.

[2] = cited from earlier work
K. pneumoniae ATCC 13883 [3] = conditions: previously reported, ref Li et al., 2015b; cited from earlier work
Excerpt: Table 2 Antibacterial activity, MIC (μM), of Chex1-Arg20 analogs against Gram-negative pathogen K. pneumoniae ATCC 13883. | column: 1^^*

Row | Molecule | Antibacterial activity, MIC (K. pneumoniae ATCC 13883 [1]) | Antibacterial activity against K. pneumoniae (in words) (K. pneumoniae ATCC 13883 [1]) | Degradation sites in vivo [2] | Antibacterial activity, MIC (K. pneumoniae ATCC 13883 [3])
1 | CC(C)C[C@H](NC(=O)[C@H](Cc1ccc(O)cc1)NC(=O)[C@@H]1CCCN1C(=O)[C@@H](CCCNC(=N)N)NC(=O)[C@@H]1CCCN1C(=O)[C@H](CCCCN)NC(=O)[C@H](CC(=O)O)NC(=O)[C@@H]1CCCN1C(=O)[C@H](CCCNC(=N)N)NC(=O)C1(N)CCCCC1)C(=O)N1CCC[C@H]1C(=O)N[C@@H](CCCNC(=N)N)C(=O)N1CCC[C@H]1C(=O)N[C@@H](CCCNC(=N)N)C(=O)N1CCC[C@H]1C(=O)N1CCC[C@H]1C(=O)N[C@@H](CCCNC(=N)N)C(=O)N1CCC[C@H]1C(=O)N[C@H](C(=O)N[C@@H](CCCNC(=N)N)C(N)=O)C(C)C [analog 2, DR7] (H-[Ac6c]RPDKP[dR]PYLPRPRPPRPVR-NH2; N-terminus assumed) | >100 µM | substantial loss of activity |  | 
2 | CC(C)C[C@H](NC(=O)[C@H](Cc1ccc(O)cc1)NC(=O)[C@@H]1CCCN1C(=O)[C@H](N)CCCNC(=N)N)C(=O)N1CCC[C@H]1C(=O)N[C@@H](CCCNC(=N)N)C(=O)N1CCC[C@H]1C(=O)N[C@@H](CCCNC(=N)N)C(=O)N1CCC[C@H]1C(=O)N1CCC[C@H]1C(=O)N[C@@H](CCCNC(=N)N)C(=O)N1CCC[C@H]1C(=O)N[C@H](C(N)=O)C(C)C [analog 4, DR7(7–19)] (H-[dR]PYLPRPRPPRPV-NH2; N-terminus assumed) | >100 µM | no antibacterial activity |  | 
3 | CC(C)C[C@H](NC(=O)[C@H](Cc1ccc(O)cc1)NC(=O)[C@@H]1CCCN1C(=O)[C@@H](CCCNC(=N)N)NC(=O)[C@@H]1CCCN1C(=O)[C@H](CCCCN)NC(=O)[C@H](CC(=O)O)NC(=O)[C@@H]1CCCN1C(=O)[C@H](CCCNC(=N)N)NC(=O)C1(N)CCCCC1)C(=O)N1CCC[C@H]1C(=O)N[C@@H](CCCNC(=N)N)C(=O)N1CCC[C@H]1C(=O)N[C@@H](CCCNC(=N)N)C(=O)N1CCC[C@H]1C(=O)N1CCC[C@H]1C(=O)N[C@@H](CCCNC(=N)N)C(=O)N1CCC[C@H]1C(=O)N[C@H](C(N)=O)C(C)C [analog 5, Chex1-Val19] (H-[Ac6c]RPDKP[dR]PYLPRPRPPRPV-NH2; N-terminus assumed) | 36.1 ± 0.6 µM | partially restored activity |  | 
4 | CC(C)C[C@H](NC(=O)[C@H](Cc1ccc(O)cc1)NC(=O)[C@@H]1CCCN1C(=O)[C@H](CCCNC(=N)N)NC(=O)[C@@H]1CCCN1C(=O)[C@H](CCCCN)NC(=O)[C@H](CC(=O)O)NC(=O)[C@@H]1CCCN1C(=O)[C@H](CCCNC(=N)N)NC(=O)C1(N)CCCCC1)C(=O)N1CCC[C@H]1C(=O)N[C@@H](CCCNC(=N)N)C(=O)N1CCC[C@H]1C(=O)N[C@@H](CCCNC(=N)N)C(=O)N1CCC[C@H]1C(=O)N1CCC[C@H]1C(=O)N[C@@H](CCCNC(=N)N)C(=O)N1CCC[C@H]1C(=O)N[C@H](C(=O)N[C@H](CCCNC(=N)N)C(N)=O)C(C)C [analog 6, DR20] (H-[Ac6c]RPDKPRPYLPRPRPPRPV[dR]-NH2; N-terminus assumed) | 11.8 ± 0.1 µM |  |  | 
5 | CC(C)C[C@H](NC(=O)[C@H](Cc1ccc(O)cc1)NC(=O)[C@@H]1CCCN1C(=O)[C@H](CCCNC(=N)N)NC(=O)[C@@H]1CCCN1C(=O)[C@H](CCCCN)NC(=O)[C@H](CC(=O)O)NC(=O)[C@@H]1CCCN1C(=O)[C@H](CCCNC(=N)N)NC(=O)C1(N)CCCCC1)C(=O)N1CCC[C@H]1C(=O)N[C@@H](CCCNC(=N)N)C(=O)N1CCC[C@H]1C(=O)N[C@@H](CCCNC(=N)N)C(=O)N1CCC[C@H]1C(=O)N1CCC[C@H]1C(=O)N[C@@H](CCCNC(=N)N)C(=O)N1CCC[C@H]1C(=O)N[C@H](C(=O)N(C)[C@@H](CCCNC(=N)N)C(N)=O)C(C)C [analog 7, mR20] (H-[Ac6c]RPDKPRPYLPRPRPPRPV[NMeR]-NH2; N-terminus assumed) | 14.5 ± 0.1 µM |  |  | 
6 | CC(C)C[C@H](NC(=O)[C@@H]1CCCN1C(=O)[C@H](CCCNC(=N)N)NC(=O)[C@@H]1CCCN1C(=O)[C@H](CCCNC(=N)N)NC(=O)[C@@H]1CCCN1C(=O)[C@@H]1CCCN1C(=O)[C@H](CCCNC(=N)N)NC(=O)[C@@H]1CCCN1C(=O)[C@@H](NC(=O)[C@H](CCCNC(=N)N)NC(=O)C1(N)CCCCC1)C(C)C)C(=O)N[C@@H](Cc1ccc(O)cc1)C(=O)N1CCC[C@H]1C(=O)N[C@@H](CCCNC(=N)N)C(=O)N1CCC[C@H]1C(=O)N[C@@H](CCCCN)C(=O)N[C@@H](CC(=O)O)C(=O)N1CCC[C@H]1C(=O)N[C@@H](CCCNC(=N)N)C(N)=O [analog 8, reverse] (H-[Ac6c]RVPRPPRPRPLYPRPKDPR-NH2; N-terminus assumed) | >100 µM | no activity |  | 
7 | A3-APO |  |  | degradation at positions Pro6-Arg7 and Val19-Arg20 | 
8 | Chex1-Arg20 (Chex-RPDKPRPYLPRPRPPRPVR-NH2; reading uncertain) [analog 1, de novo designed proline-rich antimicrobial peptide, Chex-…-NH2] |  |  |  | 0.8 ± 0.1 µM
